In paper PMC10146558, “Highly Cytotoxic Copper(II) Mixed-Ligand Quinolinonato Complexes: Pharmacokinetic Properties and Interactions with Drug Metabolizing Cytochromes P450” (Pharmaceutics, 2023):

What was measured:
cytochrome P450 = test system: cytochrome P450; set-up: method as in PMID 26911729; settings: ref [50]; cited from earlier work
[1] = test system: human liver microsomal cytochrome P450s
Experimental: (§1) The cuvette contained microsomes diluted to final concentration of CYP 1 µM in 50 mM potassium phosphate buffer (pH 7.4). The tested compounds were dissolved in the same buffer, and their concentrations in the experiments ranged from 0.002 to 33.310 µM. The UV-Visible spectra were recorded at room temperature by repetitive scanning between 300 and 700 nm using Varian 500 UV/VIS spectrophotometer (Agilent Technologies, Wakefield, MA, USA). Changes of absorbance in the range of the Soret’s region (380–450 nm) were plotted against the concentration of the studied compounds. Data were analysed using GraphPad Prism 6 software (La Jolla, CA, USA).

CYP3A4/5 = CYP3A4/5 activity (testosterone 6β-hydroxylation) in human liver microsomes
Experimental: For each enzyme assay, the preliminary experiments to determine Michaelis constant (Km) and limiting velocity (Vmax) were performed to calculate the time of incubation (the specified time for which the reaction is still linear) and the values of substrate concentration (in the range corresponding to the value of Km). The amount of human liver microsomes (HLM; expressed as the amount of CYP in pmol and the concentration of HLM protein in mg/mL in the reaction vessel) in the reaction was determined using previously established protocols [40].
The reaction mixtures were buffered by 0.1 M potassium phosphate buffer (pH 7.4) and contained a NADPH-generating system consisting of the isocitrate dehydrogenase (6 U/mL), NADP^+ (0.5 mM), isocitric acid (4 mM), and MgSO4 (5 mM). The final concentration levels of complexes were obtained by diluting a 10 mM solution with dimethyl sulfoxide (DMSO). It is known that DMSO can in some cases inhibit P450; the following measures were thus applied: (a) control samples containing organic solvent without the tested compounds were prepared and used as references; (b) DMSO levels were maintained below 0.1% to minimise the inhibition. Inhibition experiments were performed using five concentration levels of the tested compounds in the range of 10–100 µM. The maximum concentration was chosen so that in the case of inhibition, it would be possible to determine the inhibitory effect of the complexes and characterise them by determining the IC50 value. Additionally, an inhibitor-free control was used as a reference. Incubations were executed in two independent batches, and the samples were prepared and measured in triplicate at 37 °C.
The type of model was selected on the basis of the Lineweaver–Burk and Dixon plots. The values of IC50 were obtained by analysing the plot of the percentage of activity remaining after inhibition versus the logarithm of the inhibitor concentration using the GraphPad Prism 6 software (La Jolla, CA, USA).

CYP2C19 = target: T1, CYP2C19 (Homo sapiens, UniProt P33261); test: CYP2C19 activity ((S)-mephenytoin 4′-hydroxylation) in human liver microsomes; type: biochemical; settings: free ligand, up to 100 μM
T1 construct: Cryopreserved pooled human liver microsomes were obtained from Xenotech; tissue Xenotech (Lenexa, KS, USA); host or cells: pooled human liver microsomes
Experimental: (§2) For each enzyme assay, the preliminary experiments to determine Michaelis constant (Km) and limiting velocity (Vmax) were performed to calculate the time of incubation (the specified time for which the reaction is still linear) and the values of substrate concentration (in the range corresponding to the value of Km).
(§3) The reaction mixtures were buffered by 0.1 M potassium phosphate buffer (pH 7.4) and contained a NADPH-generating system consisting of the isocitrate dehydrogenase (6 U/mL), NADP^+ (0.5 mM), isocitric acid (4 mM), and MgSO4 (5 mM). The final concentration levels of complexes were obtained by diluting a 10 mM solution with dimethyl sulfoxide (DMSO). It is known that DMSO can in some cases inhibit P450; the following measures were thus applied: (a) control samples containing organic solvent without the tested compounds were prepared and used as references; (b) DMSO levels were maintained below 0.1% to minimise the inhibition. Inhibition experiments were performed using five concentration levels of the tested compounds in the range of 10–100 µM. The maximum concentration was chosen so that in the case of inhibition, it would be possible to determine the inhibitory effect of the complexes and characterise them by determining the IC50 value. Additionally, an inhibitor-free control was used as a reference. Incubations were executed in two independent batches, and the samples were prepared and measured in triplicate at 37 °C. Analyses of the metabolites formed from the specific substrates were performed by HPLC using the Prominence system (Shimadzu, Kyoto, Japan) equipped with a LiChroCART 250-4 LiChrospher 100 RP-18 column, Chromolith® HighResolution RP-18 end-capped column (Merck, Darmstadt, Germany), or Kinetex Biphenyl column (Phenomenex, Torrace, CA, USA).
(§4) The apparent Ki values were determined by additional measurements using substrate concentrations corresponding to 1/2 Km, Km, 2 Km, and 4 Km in the case of inhibition. The type of model was selected on the basis of the Lineweaver–Burk and Dixon plots. The values of IC50 were obtained by analysing the plot of the percentage of activity remaining after inhibition versus the logarithm of the inhibitor concentration using the GraphPad Prism 6 software (La Jolla, CA, USA).

[2] = test system: human liver microsomal cytochrome P450s; test: Difference spectra (UV-visible spectral titration) with human liver microsomes; settings: read-out: Ks (spectral binding constant); spectral differences at 386 nm, CYP 1 µM, pH 7.4, room temperature
Experimental: as §1

CYP3A4 = CYP3A4 (Homo sapiens, UniProt P08684); test: CYP3A4 activity (midazolam 1′-hydroxylation) in human liver microsomes; settings: Dixon and Lineweaver–Burk plots
Sequence of CYP3A4 (P08684 2-503): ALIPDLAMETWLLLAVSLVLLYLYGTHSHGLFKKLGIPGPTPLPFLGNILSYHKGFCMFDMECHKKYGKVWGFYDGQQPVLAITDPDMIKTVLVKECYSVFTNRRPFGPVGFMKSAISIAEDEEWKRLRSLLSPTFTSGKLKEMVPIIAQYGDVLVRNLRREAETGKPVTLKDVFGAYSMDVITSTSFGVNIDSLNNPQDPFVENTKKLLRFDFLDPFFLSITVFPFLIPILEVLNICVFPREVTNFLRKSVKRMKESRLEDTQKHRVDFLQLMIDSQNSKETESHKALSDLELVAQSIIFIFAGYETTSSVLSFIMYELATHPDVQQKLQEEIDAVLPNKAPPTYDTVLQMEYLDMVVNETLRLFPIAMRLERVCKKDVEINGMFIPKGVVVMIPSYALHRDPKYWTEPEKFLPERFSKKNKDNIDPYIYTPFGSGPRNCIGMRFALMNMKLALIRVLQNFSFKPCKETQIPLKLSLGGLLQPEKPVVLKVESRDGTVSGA
Experimental: as §2, §3, §4

T1 sequence (P33261 whole entry): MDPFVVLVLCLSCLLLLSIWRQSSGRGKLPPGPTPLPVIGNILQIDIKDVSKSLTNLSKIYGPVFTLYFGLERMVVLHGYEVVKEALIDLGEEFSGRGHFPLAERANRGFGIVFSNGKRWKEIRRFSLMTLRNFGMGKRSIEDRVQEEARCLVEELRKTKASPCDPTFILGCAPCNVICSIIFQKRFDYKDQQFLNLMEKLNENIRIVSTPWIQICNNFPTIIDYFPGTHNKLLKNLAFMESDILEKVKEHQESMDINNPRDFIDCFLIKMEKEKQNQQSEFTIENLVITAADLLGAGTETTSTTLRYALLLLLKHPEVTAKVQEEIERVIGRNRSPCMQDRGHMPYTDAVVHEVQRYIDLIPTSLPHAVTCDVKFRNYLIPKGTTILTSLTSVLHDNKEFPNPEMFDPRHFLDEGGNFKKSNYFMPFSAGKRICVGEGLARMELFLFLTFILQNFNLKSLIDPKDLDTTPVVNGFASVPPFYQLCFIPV

CC(=O)CC(C)=O.Cc1ccnc2c1ccc1c(C)ccnc12.O=[N+]([O-])[O-].O=[N+]([O-])[O-].[Cu+2] [[Cu(acac)(4,7-dimethyl-1,10-phenanthroline)(H2O)](NO3)2]
IC50 (cytochrome P450): ~10 µM

O=c1c(O)c(-c2ccccc2)[nH]c2ccccc12 [Hqui, 2-phenyl-3-hydroxy-1H-quinolin-4-one, reference compound]
Changes in difference spectra on interaction with microsomal CYPs [1]: no significant changes | CYP3A4/5 activity remaining (testosterone 6β-hydroxylation), % of basal activity (CYP3A4/5; at 100 μM): ca. 60% | Decrease in CYP2C19 activity (CYP2C19): 66%

Cc1cc2cccnc2c2ncccc12 [mphen, 5-methyl-1,10-phenanthroline]
Changes in difference spectra on interaction with microsomal CYPs [1]: no significant changes

O.O.O.O=[N+]([O-])[O-].O=[N+]([O-])[O-].[Cu+2] [copper(II) nitrate trihydrate, reference compound]
Kd [2]: 9.81 ± 0.6 µM | Type of inhibition, CYP3A4 (midazolam 1′-hydroxylation) (CYP3A4): non-competitive | Ki (CYP3A4; read-out: Ki CYP3A4 (midazolam 1′-hydroxylation assay), substrate ½ Km to 4 Km): 8.25 ± 1.64 µM | Ki (CYP3A4/5; read-out: Ki CYP3A4/5 (testosterone 6β-hydroxylation assay), Dixon and Lineweaver–Burk plots, substrate ½ Km to 4 Km): 1.56 ± 0.25 µM
